The subject of data set [1] is trypsin-like enzyme biosynthesis in the midgut. As to the kind of experiment: Inhibition of trypsin-like enzyme biosynthesis after injection of peptides into ligated abdomens of blood-fed female mosquitoes. Type of data set: in vivo, Aedes aegypti. As to conditions: for ability to inhibit trypsin-like enzyme biosynthesis: ligated abdomens of female A. aegypti, 24 hours after injection; for biological activity: against Aedes aegypti, compared with TMOF or among the analogs.

Data set [2] is described as follows: Stability in solution of mosquito homogenate (including digestive enzymes). Type of data set: in vitro ADME. As to conditions: room temperature, two weeks. The source says: The compounds of the subject invention are white powders that are highly soluble in water. They can be synthesized on a commercial peptide synthesizer. […] Thus, these peptides are particularly attractive for the control of mosquitoes and other pests. Another advantage of the penta- and octa-peptides of the subject invention is that they are more rapidly absorbed in the insect gut. […] Thus, the novel peptides display a more rapid action, a decreased chance for insect gut enzymes to proteolyze the peptide, and high activity. The peptides were not affected by 1% trifluoroacetic acid and were routinely purified using this acid on HPLC.

No end group written: not given here.

As for YDPAPPPPPP [TMOF, reference compound], in data set [1], the “ability to inhibit trypsin-like enzyme biosynthesis” value is listed as “demonstrated an ability to inhibit trypsin-like enzyme biosynthesis”.
With “YDPAPPPP [Peptide P4, H2 N--YDPAP4 --COOH]”, in data set [1], the biological activity result is recorded as “retains biological activity” and the “ability to inhibit trypsin-like enzyme biosynthesis” value is given as “demonstrated an ability to inhibit trypsin-like enzyme biosynthesis”.
Take YDPAP [Peptide P1, H2 N--YDPAP--COOH]: in data set [1], the biological activity entry is on record as “even greater activity than the octa-peptideP4” and the “ability to inhibit trypsin-like enzyme biosynthesis” value is listed as “demonstrated an ability to inhibit trypsin-like enzyme biosynthesis”. In addition, in data set [2], the “activity after standing in mosquito homogenate” value is on record as “without loss of activity”.

For the origin of these results see patent publication US5792750A, “Materials and method for control of pests” (priority 1997, dated 1998).
